Assay results published in patent publication US7208517B1, “Endothelin antagonists” (Abbott Labortories, priority 1994, dated 2007).

Assays:
[1] = test system: male subjects with hormone refractory prostate cancer; test: Bone scan (bone scan index, skeletal involvement) of treated subjects; assay type: in vivo, human; settings: versus placebo
Experimental: Studies were performed on male subjects with asymptomatic hormone refractory prostate cancer with rising PSA levels and on male subjects with symptomatic hormone refractory prostate cancer with rising PSA levels and pain. Subjects in the phase II studies had castrate levels of testosterone, either due to pharmacologic intervention, via leuprolide (Lupron®) or goserelin (Zoladex®), or via surgical castration. Subjects received ABT-627 or placebo. The following tests were conducted:
ABT-627 was formulated in 2.5 and 10 mg doses. An oral liquid formulation of ABT-627 was also prepared as follows: 1 mg/ml ABT-627, 50% glycerin, 14% alcohol, and water. Matching placebos were also provided.
Bone scans were performed with an NDA approved, Tc-99m phosphonate type radiopharmaceutical. This technique uses whole body format (skull to feet) so that anterior and posterior images are presented when using a 510 K-approved gamma camera. […] Each site was evaluated against a confidence score of 1 to 5, where 1 is negative, 2 is probably negative, 3 is equivocal, 4 is probably positive, and 5 is definitely positive. […] In addition, in a blinded study, a reference nuclear medicine physician interpreted the bone scans quantitatively as follows: the percent of involved bone was estimated for each individual bone, and the individual bone involvement was summed to calculate a global percent bone scan index (BSI). […]

[2] = test system: male subjects with hormone refractory prostate cancer; test: Visual Analog Scale (VAS) pain assessment of treated subjects; assay type: in vivo, human; settings: independent of the effects of morphine
Experimental: Studies were performed on male subjects with asymptomatic hormone refractory prostate cancer with rising PSA levels and on male subjects with symptomatic hormone refractory prostate cancer with rising PSA levels and pain. Subjects in the phase II studies had castrate levels of testosterone, either due to pharmacologic intervention, via leuprolide (Lupron®) or goserelin (Zoladex®), or via surgical castration. Subjects received ABT-627 or placebo. The following tests were conducted: ABT-627 was formulated in 2.5 and 10 mg doses. An oral liquid formulation of ABT-627 was also prepared as follows: 1 mg/ml ABT-627, 50% glycerin, 14% alcohol, and water. Matching placebos were also provided. […] The log also contained a table on which was recorded all daily pain medication consumed by the patient. […] Clinical personnel who received the logs measured the score by measuring the distance (in mm) from the “no pain” end mark to the point where the subject's line crossed the VAS line. […] The weekly VAS scores were calculated excluding the lowest and highest score for each week and averaging the remaining five scores. […] The duration of the response, defined as the time from baseline to the last weekly assessment for which the responder definition was satisfied, was analyzed using the Kaplan-Meier methodology and logrank test.

Compound: CCCCCN(CCCC)C(=O)CN1C[C@H](c2ccc3c(c2)OCO3)[C@@H](C(=O)O)[C@@H]1c1ccc(OC)cc1 [ABT-627]
- proportion of total skeletal involvement by bone scan (FIG. 6) [1]: a decrease in the proportion of total skeketal involvement
- VAS scores, pain (AUC, FIG. 3) [2]: VAS scores showed a decrease in pain
